Results reported in patent US20020173662A1, “Parasiticidal pyrazoles” (priority 1998, published 2002).

Columns and labels:
[1] = tested on: adult Stomoxys calcitrans; experiment: Test for insecticidal activity: topical application to adult flies, mortality at 24 hours; assay type: in vivo; details: acetone solution (1 μl) applied to thorax, mortality assessed 24 hours after dosing
Procedure: Test for Insecticidal Activity Adult flies (Stomoxys calcitrans) are collected and anaesthetized using CO2. An acetone solution (1 μl) containing the test compound is applied directly to the thorax of each fly and then the flies are placed carefully into a 50 ml tube covered with damp gauze to recover from the CO2. Negative controls have acetone (1 μl) dispensed onto them. Mortality is assessed 24 hours after dosing. Table 1 illustrates the in vivo activity of a selection of the compounds of the invention against adult Stomoxys calcitrans. Dosages required to produce 100% mortality are given in the final column as μg/fly.

[2] = tested on: Boophilus microplus larvae; experiment: Test for acaricidal activity: treated filter paper envelope, larval mortality; details: larvae in treated filter paper envelope; 25° C.; mortality assessed after 48 hours
Procedure: Test for Acaricidal Activity
A dose of 10 μg/cm^2 is created by evenly pipetting 0.5 ml of a 1 mg/ml solution of the test compound in a suitable solvent such as acetone or ethanol onto a Whatman No. 1 (Trade Mark) filter paper cut to a size of 8×6.25 cm. When dry, the paper is folded in half, sealed on two sides using a crimping device and placed in a Kilner jar containing a cotton wool pad dampened with water. The jar is then sealed and placed at 25° C. for 24 hours. Next, approximately 50 Boophilus microplus larvae are introduced into the treated paper envelope which is then crimped along the third side to effect a complete seal. The paper envelope is returned to the Kilner jar, which is sealed and placed at 25° C. for a further 48 hours. The papers are then removed and mortality assessed. Negative controls are provided by treating an appropriately cut filter paper with 0.5 ml of solvent only and following the same procedure. Activity at other doses is obtained by varying the concentration of the test solution.
Table 2 illustrates the in vitro activity of a selection of the compounds of the invention against Boophilus microplus larvae. Dosages required to produce 100% mortality are given in the final column as μg/cm^2.

Row | melting point | Compound | Dosage required to produce 100% mortality [1] | Dosage required to produce 100% mortality [2]
1 | 86.5 to 88.2 °C | C=C(C)c1nn(-c2c(Cl)cc(C(F)(F)F)cc2Cl)cc1C1CC1(Br)Br (stereo not shown) [Example 1, 4-(2,2-Dibromocyclopropyl)-1-(2,6-dichloro-4-trifluoromethylphenyl)-3-(propen-2-yl)pyrazole] |  | 
2 |  | FC(F)(F)c1cc(Cl)c(-n2cc(C3CC3(Br)Br)cn2)c(Cl)c1 (stereo not shown) [Example 9, 4-(2,2-Dibromocyclopropyl)-1-(2,6-dichloro-4-trifluoromethylphenyl)pyrazole] | 0.05 μG/FLY | 
3 | 106 to 107 °C | FC(F)(F)c1cc(Cl)c(-n2cc(C3CC3(Br)Br)c(C=C(Br)Br)n2)c(Cl)c1 (stereo not shown) [Example 6, 4-(2,2-Dibromocyclopropyl)-3-(2,2-dibromoethenyl)-1-(2,6-dichloro-4-trifluoromethylphenyl)pyrazole] |  | 
4 |  | C=Cc1nn(-c2c(Cl)cc(C(F)(F)F)cc2Cl)cc1C1CC1(Br)Br (stereo not shown) [Example 4, 4-(2,2-Dibromocyclopropyl)-1-(2,6-dichloro-4-trifluoromethylphenyl)-3-ethenylpyrazole] | 0.10 μG/FLY | 
5 | 124.9 to 126 °C | Nc1nn(-c2c(Cl)cc(C(F)(F)F)cc2Cl)cc1C1CC1(Br)Br (stereo not shown) [Example 8, 3-Amino-4-(2,2-dibromocyclopropyl)-1-(2,6-dichloro-4-trifluoromethylphenyl)pyrazole] |  | 
6 |  | FC(F)(F)c1cc(Cl)c(-n2cc(C3CC3(Br)Br)c(Cl)n2)c(Cl)c1 (stereo not shown) [Example 10, 3-Chloro-4-(2,2-dibromocyclopropyl)-1-(2,6-dichloro-4-trifluoromethylphenyl)pyrazole] |  | 1.00 μg/cm^2
7 | 186.2 to 187.3 °C | NC(=O)c1nn(-c2c(Cl)cc(C(F)(F)F)cc2Cl)cc1C1CC1(Br)Br (stereo not shown) [Example 7, 3-Carbamoyl-4-(2,2-dibromocyclopropyl)-1-(2,6-dichloro-4-trifluoromethylphenyl)pyrazole] |  | 
8 |  | FC(F)=Cc1nn(-c2c(Cl)cc(C(F)(F)F)cc2Cl)cc1C1CC1(Br)Br (stereo not shown) [Example 5, 4-(2,2-Dibromocyclopropyl)-1-(2,6-dichloro-4-trifluoromethylphenyl)-3-(2,2-difluoroethenyl)pyrazole] | 0.10 μG/FLY | 
9 |  | FC(F)(F)c1cc(Cl)c(-n2cc(C3CC3(Br)Br)c(Br)n2)c(Cl)c1 (stereo not shown) [Example 11, 3-Bromo4-(2,2-dibromocyclopropyl)-1-(2,6-dichloro-4-trifluoromethylphenyl)pyrazole] | 0.05 μG/FLY | 1.00 μg/cm^2
